Earlier results in patent publication US6455086B1, “Microorganism reduction methods and compositions for food cleaning” (The Procter & Gamble Company, priority 1999, dated 2002).
Counter-ions that a name gives are not always drawn.

Columns and labels:
[1] = tested on: typical Gram negative and positive bacteria, fungi and yeasts; settings: used at a level from about 0.001% to about 0.5% by weight of the usage composition

Row | SMILES | effectiveness against typical Gram negative and positive bacteria, fungi and yeasts [1] | solubility in water
1 | O=c1[nH]sc2ccccc12 [Proxel, 1,2-benzisothiazolin-3-one] | effective | –
2 | [H]/N=C(\N/C(=N/[H])NCCCCCCNC(=N)NC(=N)Nc1ccc(Cl)cc1)Nc1ccc(Cl)cc1 [chlorhexidine diacetate salt, 1,1′-hexamethylene bis(5-(p-chlorophenyl)biguanide)] | – | about 1.8%
3 | Cn1sc2c(c1=O)CCC2 [Promexal, 2-methyl-4,5-trimethylene4-isothiazolin-3-one] | effective | –
4 | [H]/N=C(\N/C(=N/[H])NCCCCCCNC(=N)NC(=N)Nc1ccc(Cl)cc1)Nc1ccc(Cl)cc1 [chlorhexidine digluconate salt, 1,1′-hexamethylene bis(5-(p-chlorophenyl)biguanide)] | – | about 70%
